Source: ChEMBL document CHEMBL1156829 (Proc Natl Acad Sci U S A, 2008)
pEC50: −log10 of the molar value.

How the values were obtained:
Plasmodium falciparum [1] = assay: NOVARTIS: Inhibition of Plasmodium falciparum W2 (drug-resistant) proliferation in erythrocyte-based infection assay; assay type: functional, organism-based; details: Plasmodium falciparum, W2; read-out: EC50
Plasmodium falciparum [2] = assay: NOVARTIS: Inhibition of Plasmodium falciparum 3D7 (drug-susceptible) proliferation in erythrocyte-based infection assay; assay type: functional, organism-based; details: Plasmodium falciparum, 3D7
[3] = NOVARTIS: Cytotoxicity against human hepatocellular carcinoma cell line (Huh7); assay type: toxicity, cell-based, Huh-7; details: Huh7 cells (hepatocellular carcinoma cell line)

SMILES	pEC50 (Plasmodium falciparum [1])	pEC50 (Plasmodium falciparum [2])	CC50 [3]
Oc1cc(-c2ccccc2)nc2ccccc12	6.26	5.97	> 93200 nM
N=c1c2ccccc2nnn1-c1ccc(C(F)(F)F)cc1	6.24	6.41	> 100000 nM
CC(=C(Cl)Cl)/C(Br)=C(\Br)CO	7.23	6.75	> 10000 nM
CCOC(=O)N1CCN(C(=O)c2ccc(N3CC4CC(C3)c3cccc(=O)n3C4)c(NS(=O)(=O)c3ccc4c(c3)OCCO4)c2)CC1 (configuration not stated)	6.23	5.61	> 100000 nM
COc1ccc2c(c1)c(C)cc[n+]2Cc1ccccc1	6.93	7.06	20700 nM
COc1cc(C(=O)NCc2ccco2)ccc1OC1CCN(CC(c2ccccc2)c2ccccc2)CC1	7.23	6.93	> 10000 nM
C=C(C)CSc1nc(N)c2c3c(sc2n1)CN(CCC)CC3	6.42	6.10	> 66300 nM
O=C1CN(C(=O)CCC2CCCCC2)C(c2ccc(F)cc2)c2cc(F)ccc2N1 (configuration not stated)	6.44	6.25	64400 nM
OC(CNc1cccc2ccccc12)Cn1c2ccc(Cl)cc2c2cc(Cl)ccc21 (configuration not stated)	6.51	6.39	54200 nM
CC(C)(C[N+](C)(C)C)C1OC2CCCCC2C2C=CCCC21 (configuration not stated)	6.25	6.00	> 100000 nM
O=C(NC1CC1)c1ccc(CSCc2ccccc2Cl)o1	6.25	6.30	> 100000 nM
O=C(NCc1c(Cl)cccc1Sc1ccc(Cl)cc1)c1ccc2c(c1)CCO2	7.25	7.16	> 10000 nM
O=C(c1ccc([N+](=O)[O-])cc1)c1ccc(Cl)c(Cl)c1	6.26	6.60	> 100000 nM
Clc1ccc(Nc2nc(Nc3ccc(Cl)cc3)c3ccccc3n2)cc1	6.96	6.83	19600 nM
CN1C=CC(=Cc2sc3ccccc3[n+]2C)C=C1	6.25	6.68	> 100000 nM
CCn1c(=NC(=O)c2cc(=O)c3ccccc3o2)sc2c(OC)ccc(OC)c21	7.25	5.82	> 10000 nM
CCOc1cc(Br)cc(C=C2NC(=S)NC2=O)c1O	6.26	< 5.43	> 100000 nM
Cc1ccn2c(NC(C)(C)CC(C)(C)C)c(-c3ccccc3OC(=O)C3C[C@H]3c3ccccc3)nc2c1 (some centres not stated)	7.26	6.14	> 10000 nM
Oc1ccccc1C=Nc1ccccc1[Te]c1ccccc1N=Cc1ccccc1O	8.50	8.46	552 nM
O=C(COc1ccccc1)NC(c1ccco1)c1cc(Cl)c2cccnc2c1O (configuration not stated)	6.23	5.83	> 100000 nM
CC(C)(C)CC(C)(C)Nc1c(-c2ccccc2OC(=O)c2ccccc2Cl)nc2ccccn12	7.23	6.09	> 10000 nM
Cc1ccc2c(C)nc(Nc3nc(C)cc(-c4ccccc4)n3)nc2c1	6.24	6.01	> 100000 nM
CCCOC(=O)C1=C(C)NC2=C(C(=O)CC(c3ccc(Cl)cc3)C2)C1c1ccc(Cl)cc1 (configuration not stated)	6.40	6.53	> 69800 nM
CCCCC(=O)Oc1ccccc1-c1nc2cc(C)ccn2c1NC(C)(C)CC(C)(C)C	7.24	6.07	> 10000 nM
CCOC(=O)C1=C(C)NC2=C(C(=O)CCC2)C1c1ccc([N+](=O)[O-])cc1 (configuration not stated)	6.24	6.04	> 100000 nM
Cc1cc(Nc2ccc(Br)cc2)n2nc(C)nc2n1	6.23	6.14	> 100000 nM
CC(=O)Nc1ccc(NC(=O)C(C)(C)CCl)cc1	7.21	< 6.00	> 10500 nM

SMILES	pEC50 (Plasmodium falciparum [1])	pEC50 (Plasmodium falciparum [2])	CC50 [3]
Cc1cccc(C2Sc3ccccc3N=C3c4ccccc4C(=O)C32)c1 (configuration not stated)	6.85	6.52	24400 nM
O=C(CSc1ccc2nnc(-c3cccs3)n2n1)Nc1ccc2c(c1)OCCO2	6.24	6.35	> 100000 nM
Cc1cc2c(cc1C)N(C(=O)c1ccccc1)C(C)(C)c1ssc(=S)c1-2	6.24	6.22	> 100000 nM
COc1ccc(NC(=O)C=Cc2ccccc2Cl)cc1	6.24	6.01	> 100000 nM
C=CCOc1c(Br)cc(C=c2sc3n(c2=O)C(c2ccc(OC)c(OC)c2)C(C(=O)OCC)=C(C)N=3)cc1OC (configuration not stated)	6.24	< 4.90	> 100000 nM
O=C(Nc1ccc(-n2cnnn2)cc1)C1CCN(Cc2ccc(OC(F)F)cc2)CC1	6.57	5.80	46300 nM
CC(=O)N(C1=C(N(C)C)C(=O)c2ccccc2C1=O)c1cccc(O)c1	7.24	7.33	> 10000 nM
CCOc1ccc(C2C(C(=O)OC)=CNC=C2C(=O)OC)cc1Cl	6.24	6.52	> 100000 nM
CCOC(=O)C1CCN(C(=O)C(=O)Nc2ccc3nc4n(c(=O)c3c2)CCCCC4)CC1	6.24	6.00	> 100000 nM
C=CC1CN2CCC1CC2[C@@H](OC(=O)c1ccc(OC)cc1)c1ccnc2ccccc12 (some centres not stated)	6.29	6.51	87100 nM
CCNc1nc(OC)nc(Oc2ccc(=O)n(-c3ccccc3)n2)n1	6.23	6.26	> 100000 nM
COc1ccc(-c2c[n+](CC(=O)c3ccccc3)c3n2CCC3)cc1	6.24	5.92	> 100000 nM
Cc1nc(N2CCC(C)CC2)c2c(C)c(C(=O)Nc3ccc(C(F)(F)F)cc3)sc2n1	6.25	< 4.90	> 100000 nM
CCCN(CCC)S(=O)(=O)c1cc(Br)cc2c1N(C(C)=O)CC2	6.25	5.70	> 100000 nM
CCOc1ccc(CCNC(=O)c2cccs2)cc1OCC	6.25	6.05	> 100000 nM
CCc1ccc(C2C(C(=O)Nc3ccccc3)=C(C)Nc3c(C(=O)Nc4ccc(C)cc4)cnn32)cc1 (configuration not stated)	6.26	5.82	> 100000 nM
COc1ccc(C2=C(c3ccc(OC)cc3)C3(c4ccccc4)C(=O)C2(c2ccccc2)C2C(=O)N(c4ccccc4[N+](=O)[O-])C(=O)C23)cc1 (configuration not stated)	6.24	5.93	> 100000 nM
CC[C@H]1CN2CC[C@@H]1C[C@@H]2[C@@H](O)c1ccnc2ccc(OC)cc12	7.24	7.50	> 10000 nM
CCOC(=O)c1nnn(-c2nonc2N)c1-c1ccc(OC)cc1	6.25	6.19	> 100000 nM
CCOC(=O)C1CCN(C(=O)c2cc(C(C)(C)C)nn2Cc2ccc(Cl)cc2Cl)CC1	6.24	6.47	> 100000 nM
CCOC(=O)c1cnc2c(C)cc(C)cc2c1Nc1ccc(OC)c(OC)c1	6.23	5.75	> 100000 nM
N#Cc1c(N)nc(SCC(=O)c2ccc(Cl)cc2)c(C#N)c1-c1ccco1	6.23	5.64	> 100000 nM
O=C1CC(c2ccccc2)CC2=C1C(c1cccc(Cl)c1Cl)Nc1ccccc1N2 (configuration not stated)	6.33	6.54	> 78800 nM
CCOC(=O)C1CCN(C(c2cc3cc(OC)c(OC)cc3[nH]c2=O)c2nnnn2C(C)(C)C)CC1 (configuration not stated)	6.25	6.05	> 100000 nM
Clc1ccc(Nc2nc(NCc3ccco3)c3ccccc3n2)cc1	7.03	6.95	15600 nM
CCCCc1c(CCC)c(=N)c2ccccc2n1C	6.37	6.51	71900 nM
C=CC[n+]1c(C=C2C=CN(C)C=C2)sc2ccccc21	6.85	6.77	24600 nM
